For one experiment, the target named is human Gal-3 (hGal-3) (Homo sapiens (Human), UniProt P17931). The experiment is described as follows: Competitive binding assay: binding of biotinylated hGal-3 to microplate-adsorbed asialofetuin (ASF). The settings on record: Activity on hGal-3; mean values of several measurements. Summed up: (§1)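 Compounds diluted in DMSO competed with biotinylated hGal-3 or hGal-1 (300-1000 ng/mL) for binding to plate-adsorbed asialofetuin for 3 h at 4° C. Bound galectin was detected with streptavidin-peroxidase (80 ng/mL, 1 h, 4° C) and ABTS substrate; IC50 reported as mean of several measurements.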

Another experiment has as its target human Gal-1 (hGal-1). The experiment is described as follows: Competitive binding assay: binding of biotinylated hGal-1 to microplate-adsorbed asialofetuin (ASF). The note with it: Activities on hGal-1; mean values of several measurements. In a few lines: as §1

Bounds are passed on as bounds.

As usually defined, the IC50 is the midpoint of a concentration-inhibition curve.

Chain of human Gal-1 (hGal-1) (P09382 2-135 limits assumed): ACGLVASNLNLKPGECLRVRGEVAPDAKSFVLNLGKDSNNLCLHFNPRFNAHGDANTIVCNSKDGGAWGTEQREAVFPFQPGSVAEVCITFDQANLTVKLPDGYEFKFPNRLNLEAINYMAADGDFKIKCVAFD
Chain of human Gal-3 (hGal-3) (P17931 whole entry): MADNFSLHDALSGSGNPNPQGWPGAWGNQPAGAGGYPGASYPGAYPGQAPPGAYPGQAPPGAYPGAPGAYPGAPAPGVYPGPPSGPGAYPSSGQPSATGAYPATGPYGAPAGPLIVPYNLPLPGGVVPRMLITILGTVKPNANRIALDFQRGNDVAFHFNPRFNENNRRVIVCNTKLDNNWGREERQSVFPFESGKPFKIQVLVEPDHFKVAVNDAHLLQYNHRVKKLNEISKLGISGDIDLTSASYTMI

`CO[C@@H]1[C@@H](n2cc(-c3cc(F)c(F)c(F)c3)nn2)[C@@H](O)[C@@H](CO)O[C@@H]1CC1CC(C2CCCCC2)=NO1` (stereo partly shown) [Ex 1.08]: the figures for the IC50 on human Gal-3 (hGal-3) and at human Gal-1 (hGal-1) were 1080 nM and 8740 nM, respectively.
For `CO[C@@H]1[C@@H](n2cc(-c3cc(F)c(F)c(F)c3)nn2)[C@@H](O)[C@@H](CO)O[C@@H]1C[C@H]1CC(C2CCCCC2)=NO1` [Ex 1.09] the same measures were 2150 nM and 27500 nM.
The matching figures for `CO[C@@H]1[C@@H](n2cc(-c3cc(F)c(F)c(F)c3)nn2)[C@@H](O)[C@@H](CO)O[C@@H]1C[C@@H]1CC(C2CCCCC2)=NO1` [Ex 1.10]: 560 nM and 5390 nM.
As to `OC[C@H]1O[C@H](CC2CC(C3CCCC3)=NO2)[C@H](O)[C@@H](n2cc(-c3cc(F)c(F)c(F)c3)nn2)[C@H]1O` (stereo partly shown) [Ex 1.11], the IC50 stood at 510 nM at human Gal-3 (hGal-3) and 5610 nM on human Gal-1 (hGal-1).
For `CO[C@@H]1[C@@H](n2cc(-c3cc(F)c(F)c(F)c3)nn2)[C@@H](O)[C@@H](CO)O[C@@H]1CC1CC(C2CCCC2)=NO1` (stereo partly shown) [Ex 1.12] the same measures were 670 nM and 3550 nM.
For `COc1ccc(C2=NOC(C[C@H]3O[C@H](CO)[C@H](O)[C@H](n4cc(-c5cc(F)c(F)c(F)c5)nn4)[C@H]3O)C2)c(Cl)c1` (stereo partly shown) [Ex 1.13] the same measures were 1110 nM and 6340 nM.
For `OC[C@H]1O[C@H](CC2CC(c3cncnc3)=NO2)[C@H](O)[C@@H](n2cc(-c3cc(F)c(F)c(F)c3)nn2)[C@H]1O` (stereo partly shown) [Ex 1.14] the same measures were 680 nM and 2270 nM.
In the case of `CO[C@@H]1[C@@H](n2cc(-c3cc(F)c(F)c(F)c3)nn2)[C@@H](O)[C@@H](CO)O[C@@H]1CC1CC(c2cncnc2)=NO1` (stereo partly shown) [Ex 1.15], the IC50 at human Gal-3 (hGal-3) was determined as 650 nM; at human Gal-1 (hGal-1), 3200 nM.
The matching figures for `OC[C@H]1O[C@H](CC2CC(c3ccncc3)=NO2)[C@H](O)[C@@H](n2cc(-c3cc(F)c(F)c(F)c3)nn2)[C@H]1O` (stereo partly shown) [Ex 1.16]: 430 nM and 6620 nM.
The matching figures for `CO[C@@H]1[C@@H](n2cc(-c3cc(F)c(F)c(F)c3)nn2)[C@@H](O)[C@@H](CO)O[C@@H]1CC1CC(c2ccncc2)=NO1` (stereo partly shown) [Ex 1.17]: 700 nM and 8790 nM.
For `OC[C@H]1O[C@H](CC2CC(c3cccc(Cl)c3)=NO2)[C@H](O)[C@@H](n2cc(-c3cc(F)c(F)c(F)c3)nn2)[C@H]1O` (stereo partly shown) [Ex 1.18] the same measures were 970 nM and 14100 nM.
With `CO[C@@H]1[C@@H](n2cc(-c3cc(F)c(F)c(F)c3)nn2)[C@@H](O)[C@@H](CO)O[C@@H]1CC1CC(C2CCOCC2)=NO1` (stereo partly shown) [Ex 1.19], the IC50 at human Gal-3 (hGal-3) stood at 530 nM; at human Gal-1 (hGal-1), 5580 nM.
Take `CO[C@@H]1[C@@H](n2cc(-c3cc(F)c(F)c(F)c3)nn2)[C@@H](O)[C@@H](CO)O[C@@H]1CC1CC(c2ccc3[nH]c(=O)oc3c2)=NO1` (stereo partly shown) [Ex 1.20]: the IC50 was 240 nM on human Gal-3 (hGal-3) and 4270 nM at human Gal-1 (hGal-1).
For `O=c1[nH]c2ccc(C3=NOC(C[C@H]4O[C@H](CO)[C@H](O)[C@H](n5cc(-c6cc(F)c(F)c(F)c6)nn5)[C@H]4O)C3)cc2o1` (stereo partly shown) [Ex 1.21] the same measures were 150 nM and 4770 nM.
With `OC[C@H]1O[C@H](CC2CC(C3CCOCC3)=NO2)[C@H](O)[C@@H](n2cc(-c3cc(F)c(F)c(F)c3)nn2)[C@H]1O` (stereo partly shown) [Ex 1.22], the IC50 on human Gal-3 (hGal-3) was found to be 430 nM; at human Gal-1 (hGal-1), 4480 nM.
The matching figures for `COc1ccc(C2=NOC(C[C@H]3O[C@H](CO)[C@H](O)[C@H](n4cc(-c5cc(F)c(F)c(F)c5)nn4)[C@H]3O)C2)cn1` (stereo partly shown) [Ex 1.23]: 700 nM and 6800 nM.
Consider `COc1cc(C2=NOC(C[C@H]3O[C@H](CO)[C@H](O)[C@H](n4cc(-c5cc(F)c(F)c(F)c5)nn4)[C@H]3O)C2)ccn1` (stereo partly shown) [Ex 1.24], for which the IC50 at human Gal-3 (hGal-3) amounted to 800 nM; on human Gal-1 (hGal-1), 13300 nM.
On to `COc1ccc(C2=NOC(C[C@H]3O[C@H](CO)[C@H](O)[C@H](n4cc(-c5cc(F)c(F)c(F)c5)nn4)[C@H]3O)C2)cc1O` (stereo partly shown) [Ex 1.25], for which the IC50 was found to be 670 nM at human Gal-3 (hGal-3) and 4970 nM on human Gal-1 (hGal-1).
With `OC[C@H]1O[C@H](CC2CC(c3ccc4[nH]cnc4c3)=NO2)[C@H](O)[C@@H](n2cc(-c3cc(F)c(F)c(F)c3)nn2)[C@H]1O` (stereo partly shown) [Ex 1.26], the results for the IC50 on human Gal-3 (hGal-3) and on human Gal-1 (hGal-1) were 1150 nM and 17500 nM, respectively.
Turning to `OC[C@H]1O[C@H](CC2CC(c3cn[nH]c3)=NO2)[C@H](O)[C@@H](n2cc(-c3cc(F)c(F)c(F)c3)nn2)[C@H]1O` (stereo partly shown) [Ex 1.27], the half-inhibitory concentration (IC50) is 410 nM on human Gal-3 (hGal-3) and 6540 nM at human Gal-1 (hGal-1).
For `Cn1c(=O)[nH]c2cc(C3=NOC(C[C@H]4O[C@H](CO)[C@H](O)[C@H](n5cc(-c6cc(F)c(F)c(F)c6)nn5)[C@H]4O)C3)ccc21` (stereo partly shown) [Ex 1.28] the same measures were 470 nM and 18900 nM.
The matching figures for `CO[C@@H]1[C@@H](n2cc(-c3cc(F)c(F)c(F)c3)nn2)[C@@H](O)[C@@H](CO)O[C@@H]1C[C@H]1CC(c2ccc3[nH]c(=O)oc3c2)=NO1` [Ex 1.29]: 2140 nM and above 100000 nM.
For the compound `CO[C@@H]1[C@@H](n2cc(-c3cc(F)c(F)c(F)c3)nn2)[C@@H](O)[C@@H](CO)O[C@@H]1C[C@@H]1CC(c2ccc3[nH]c(=O)oc3c2)=NO1` [Ex 1.30], the IC50 was 330 nM on human Gal-3 (hGal-3) and 3090 nM at human Gal-1 (hGal-1).
The matching figures for `O=c1[nH]c2ccc(C3=NO[C@@H](C[C@H]4O[C@H](CO)[C@H](O)[C@H](n5cc(-c6cc(F)c(F)c(F)c6)nn5)[C@H]4O)C3)cc2o1` [Ex 1.31]: 1130 nM and 13500 nM.
The matching figures for `O=c1[nH]c2ccc(C3=NO[C@@H](C[C@H]4O[C@H](CO)[C@H](O)[C@H](n5cc(-c6cc(F)c(F)c(F)c6)nn5)[C@H]4O)C3)cc2o1` [Ex 1.32]: 53 nM and 1150 nM.
For `OC[C@H]1O[C@H](CC2CC(c3ccc4cn[nH]c4c3)=NO2)[C@H](O)[C@@H](n2cc(-c3cc(F)c(F)c(F)c3)nn2)[C@H]1O` (stereo partly shown) [Ex 1.33] the same measures were 800 nM and 7940 nM.
Regarding `OC[C@H]1O[C@H](CC2CC(c3ccc4[nH]ncc4c3)=NO2)[C@H](O)[C@@H](n2cc(-c3cc(F)c(F)c(F)c3)nn2)[C@H]1O` (stereo partly shown) [Ex 1.34], the half-inhibitory concentration (IC50) at human Gal-3 (hGal-3) is 880 nM; on human Gal-1 (hGal-1) it was 10600 nM.
For `OC[C@H]1O[C@H](CC2=NOC(C3CCCCC3)C2)[C@H](O)[C@@H](n2cc(-c3cc(F)c(F)c(F)c3)nn2)[C@H]1O` (stereo partly shown) [Ex 1.35] the same measures were 1000 nM and 5580 nM.
For `OC[C@H]1O[C@H](CC2=NOC(Cc3ccccc3)C2)[C@H](O)[C@@H](n2cc(-c3cc(F)c(F)c(F)c3)nn2)[C@H]1O` (stereo partly shown) [Ex 1.36] the same measures were 2540 nM and 10900 nM.
For `Cc1ncsc1C1CC(C[C@H]2O[C@H](CO)[C@H](O)[C@H](n3cc(-c4cc(F)c(F)c(F)c4)nn3)[C@H]2O)=NO1` (stereo partly shown) [Ex 1.37], the IC50 at human Gal-3 (hGal-3) stood at 440 nM; at human Gal-1 (hGal-1), 7700 nM.
The matching figures for `OCCC1CC(C[C@H]2O[C@H](CO)[C@H](O)[C@H](n3cc(-c4cc(F)c(F)c(F)c4)nn3)[C@H]2O)=NO1` (stereo partly shown) [Ex 1.38]: 1420 nM and 15900 nM.
For the compound `CC(C)(O)C1CC(C[C@H]2O[C@H](CO)[C@H](O)[C@H](n3cc(-c4cc(F)c(F)c(F)c4)nn3)[C@H]2O)=NO1` (stereo partly shown) [Ex 1.39], the IC50 at human Gal-3 (hGal-3) came to 710 nM; on human Gal-1 (hGal-1), 9940 nM.
